Data: patent publication US20180066268A1, “USE OF VITAMINS AND VITAMIN METABOLIC GENES AND PROTEINS FOR RECOMBINANT PROTEIN PRODUCTION IN MAMMALIAN CELLS” (priority 2015, published 2018)

Columns and labels:
CHO-M cells [1] = assay: CHO-M growth in vitamin-depleted B-CDmin medium complemented with lower concentrations of each vitamin; type: cell-based, Chinese hamster
Experimental: Cells (5000 cells/ml) were transferred into 150 μl media with different concentrations of vitamin B1, B5 or H (from 0 to 1×, see Table 2). 96 well-plates were used and growth was measured after 9 days of culture, by measuring the OD at 600 nm. Hatched (forward-leaning), dotted dark and hatched (backward-leaning) bars indicate modulation of B1, B5 and H concentrations, respectively.
The depleted B-CDmin medium was complemented with lower concentration of each vitamin separately, to determine the contrations range limiting CHO-M growth.
Suspension Chinese hamster ovary cells (CHO-M) were maintained in suspension culture in SFM4CHO-M Hyclone serum-free medium (SFM, ThermoScientific™) supplemented with L-glutamine (PAA, Austria) and HT supplement (GIBCO, INVITROGEN LIFE SCIENCES) at […], 5% CO2 in humidified air. Other cell media used for these experiments are the BalanCD CHO-M Growth A (B-CDfull; Irvine Scientific), and the Deficient BalanCD CHO-M Growth A (B-CDmin; Irvine Scientific), supplemented with vitamin B1 (thiamine Hydrochloride; SIGMA ALDRICH), vitamin B5 (Calcium DL-Pantothenate; TCI) and vitamin H (Biotin, SIGMA ALDRICH)

CHO-M cells [2] = assay: CHO-M growth in B-CDmin medium supplemented with various concentrations of B5 and H; type: cell-based, Chinese hamster; settings: B5 in 10× excess with low H (10×B5; 10^−4×H), 6 days of culture
Experimental: Cells were seeded at 20000 cells/ml into 500 μl of B-CD min media supplemented with the indicated amounts of vitamin B5 and H, and with B1 (1×). A 24 well-plate was used and growth was measured after 6 days of culture by measuring viable cell density.

| Compound | cell density versus full medium (CHO-M cells [1]; H at low concentration (10^−5×)) | limiting concentration (CHO-M cells [1]; absolute concentration as printed, CHO-M, 9 days of culture) | growth-limiting concentration range (CHO-M cells [1]; relative to standard concentration (1×: B1 7.5 μM, B5 2.5 μM, H 0.5 μM), CHO-M, 9 days of culture) | concentration allowing normal culture growth (CHO-M cells [1]; relative to standard B5 concentration (1× = 2.5 μM)) | untransformed cell growth relative to complete medium (1×B5; 10^−4×H) (CHO-M cells [2]) |
| --- | --- | --- | --- | --- | --- |
| O=C(O)CCCC[C@@H]1SC[C@@H]2NC(=O)N[C@@H]21 [H, Biotin] | slightly higher | < 5 µM | lower than 10^−5 × |  |  |
| Calcium DL-Pantothenate [B5] |  |  |  | ≥ 10^−2 × | strongly inhibited |
